The source of these data is PubChem BioAssay AID2060899 (Molecular Pharmacology Branch, DTP, NCI, 2025).

This experiment has as its system 565726-208-R1-J5-PDC complex spheroids, growth inhibition. As to the kind of experiment: Anticancer human tumor 565726-208-R1-J5-PDC patient-derived pancreatic adenocarcinoma cell line growth inhibition [RAS]. The note with it: for viability, T/C: stronger effect = lower value. The procedure, abridged: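 Multi-cell-type spheroids: tumor cells plus HUVEC endothelial cells and mesenchymal stem cells. RAS-pathway inhibitors were combined with targeted agents, each dosed in half-log steps down from clinical Cmax, or from 10 microM when Cmax was unknown.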
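Note: spheroids exposed to compounds for seven days before readout.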
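Throughout, for viability, T/C: 100% = DMSO vehicle control viability.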

Take `C[C@@H](NC(=O)c1ncnc(N)c1Cl)c1ncc(C(=O)Nc2cc(C(F)(F)F)c(Cl)cn2)s1` + C=CC(=O)N1CCN(c2nc(OCC3CCCN3C)nc3c(F)c(-c4nc(N)cc(C)c4C(F)(F)F)c(Cl)cc23)C(C)C1: the IC50 (curve of first compound, second compound 0.00316 µM) was more than 10000 nM; the IC50 (curve of first compound, second compound 0.01 µM) was more than 10000 nM; the IC50 (curve of first compound, second compound 0.0316 µM) was more than 10000 nM; the IC50 (curve of first compound, second compound 0.1 µM) is more than 10000 nM; the IC50 (curve of first compound, second compound 0.316 µM) was more than 10000 nM; the IC50 (curve of first compound, second compound 1 µM) is more than 10000 nM. The viability, T/C (second compound 0.00316 µM, first compound 0.0316 µM) is 119%; the viability, T/C (second compound 0.00316 µM, first compound 0.1 µM) is 151%; the viability, T/C (second compound 0.00316 µM, first compound 0.316 µM) is 88.8%; the viability, T/C (second compound 0.00316 µM, first compound 1 µM) is 98.3%; the viability, T/C (second compound 0.00316 µM, first compound 3.16 µM) is 77.7%; the viability, T/C (second compound 0.00316 µM, first compound 10 µM) is 78.3%. In addition, the viability, T/C (second compound 0.01 µM, first compound 0.0316 µM) was 95.5%; the viability, T/C (second compound 0.01 µM, first compound 0.1 µM) is 140%; the viability, T/C (second compound 0.01 µM, first compound 0.316 µM) was 94.5%; the viability, T/C (second compound 0.01 µM, first compound 1 µM) was 89.1%; the viability, T/C (second compound 0.01 µM, first compound 3.16 µM) was 91.9%; the viability, T/C (second compound 0.01 µM, first compound 10 µM) is 67.8%. Besides, the viability, T/C was 115% (second compound 0.0316 µM, first compound 0.0316 µM); 129% (second compound 0.0316 µM, first compound 0.1 µM); 92.8% (second compound 0.0316 µM, first compound 0.316 µM); 99.3% (second compound 0.0316 µM, first compound 1 µM); 88.2% (second compound 0.0316 µM, first compound 3.16 µM); 70.9% (second compound 0.0316 µM, first compound 10 µM). The viability, T/C was 120% (second compound 0.1 µM, first compound 0.0316 µM); 123% (second compound 0.1 µM, first compound 0.1 µM); 102% (second compound 0.1 µM, first compound 0.316 µM); 97.2% (second compound 0.1 µM, first compound 1 µM); 98.7% (second compound 0.1 µM, first compound 3.16 µM); 83.4% (second compound 0.1 µM, first compound 10 µM). Moreover, the viability, T/C by setting is: (second compound 0.316 µM, first compound 0.0316 µM) 86.7%; (second compound 0.316 µM, first compound 0.1 µM) 128%; (second compound 0.316 µM, first compound 0.316 µM) 104%; (second compound 0.316 µM, first compound 1 µM) 101%; (second compound 0.316 µM, first compound 3.16 µM) 106%; (second compound 0.316 µM, first compound 10 µM) 76.9%. Besides, the viability, T/C was 89.1% (second compound 1 µM, first compound 0.0316 µM); 120% (second compound 1 µM, first compound 0.1 µM); 108% (second compound 1 µM, first compound 0.316 µM); 114% (second compound 1 µM, first compound 1 µM); 86.4% (second compound 1 µM, first compound 3.16 µM); 74.6% (second compound 1 µM, first compound 10 µM).

With `O=C(c1ccc(F)c(F)c1Nc1ccc(I)cc1F)N1CC(O)([C@@H]2CCCCN2)C1` + CCn1c(-c2cc(N3CCN(C)CC3)cnc2C(C)OC)c2c3cc(ccc31)-c1csc(n1)CC(NC(=O)C1CC1C)C(=O)N1CCCC(N1)C(=O)OCC(C)(C)C2, the IC50 by setting is: (curve of first compound, second compound 0.000949 µM) 103 nM; (curve of first compound, second compound 0.003 µM) 10.2 nM; (curve of first compound, second compound 0.00949 µM) less than 3.16 nM; (curve of first compound, second compound 0.03 µM) less than 3.16 nM; (curve of first compound, second compound 0.0949 µM) less than 3.16 nM; (curve of first compound, second compound 0.3 µM) less than 3.16 nM. The viability, T/C is 66.8% (second compound 0.000949 µM, first compound 0.00316 µM); 59.9% (second compound 0.000949 µM, first compound 0.01 µM); 63.8% (second compound 0.000949 µM, first compound 0.0316 µM); 49.5% (second compound 0.000949 µM, first compound 0.1 µM); 29.4% (second compound 0.000949 µM, first compound 0.316 µM); 9.76% (second compound 0.000949 µM, first compound 1 µM). Also, the viability, T/C is, setting by setting: (second compound 0.003 µM, first compound 0.00316 µM) 55.3%; (second compound 0.003 µM, first compound 0.01 µM) 49.6%; (second compound 0.003 µM, first compound 0.0316 µM) 40.7%; (second compound 0.003 µM, first compound 0.1 µM) 25.4%; (second compound 0.003 µM, first compound 0.316 µM) 14%; (second compound 0.003 µM, first compound 1 µM) 6.79%. Also, the viability, T/C reads like this: (second compound 0.00949 µM, first compound 0.00316 µM) 39.3%; (second compound 0.00949 µM, first compound 0.01 µM) 36.5%; (second compound 0.00949 µM, first compound 0.0316 µM) 27.8%; (second compound 0.00949 µM, first compound 0.1 µM) 16.7%; (second compound 0.00949 µM, first compound 0.316 µM) 7.84%; (second compound 0.00949 µM, first compound 1 µM) 4.42%. Besides, the viability, T/C is, setting by setting: (second compound 0.03 µM, first compound 0.00316 µM) 23.9%; (second compound 0.03 µM, first compound 0.01 µM) 23.5%; (second compound 0.03 µM, first compound 0.0316 µM) 18.2%; (second compound 0.03 µM, first compound 0.1 µM) 8.87%; (second compound 0.03 µM, first compound 0.316 µM) 4.75%; (second compound 0.03 µM, first compound 1 µM) 4.55%. Also, the viability, T/C reads like this: (second compound 0.0949 µM, first compound 0.00316 µM) 17.6%; (second compound 0.0949 µM, first compound 0.01 µM) 12.8%; (second compound 0.0949 µM, first compound 0.0316 µM) 8.13%; (second compound 0.0949 µM, first compound 0.1 µM) 5.18%; (second compound 0.0949 µM, first compound 0.316 µM) 4.88%; (second compound 0.0949 µM, first compound 1 µM) 4.22%. The viability, T/C by setting is: (second compound 0.3 µM, first compound 0.00316 µM) 14.9%; (second compound 0.3 µM, first compound 0.01 µM) 12.6%; (second compound 0.3 µM, first compound 0.0316 µM) 6.29%; (second compound 0.3 µM, first compound 0.1 µM) 4%; (second compound 0.3 µM, first compound 0.316 µM) 3.7%; (second compound 0.3 µM, first compound 1 µM) 3.03%.

For `C#Cc1c(F)ccc2cc(O)cc(-c3ncc4c(N5CC6CCC(C5)N6)nc(OCC56CCCN5CC(F)C6)nc4c3F)c12` (stereo not drawn), the viability, T/C was 104% [middle of 8 runs] (compound 0.0316 µM); 101% [middle of 8 runs] (compound 0.1 µM); 94.6% [middle of 8 runs] (compound 0.316 µM); 84.3% [middle of 8 runs] (compound 1 µM); 78.7% [middle of 8 runs] (compound 3.16 µM). Moreover, for the setting “compound alone, run of 07/15/2024”, the IC50 was more than 10000 nM.

Consider `CCC(CC)c1cc(NC2CCC(N)C2)n2nccc2n1` (stereo not drawn), for which the viability, T/C was 105% [middle of 4 runs] (compound 0.316 µM), 81.9% [middle of 4 runs] (compound 1 µM), 1.5% [middle of 4 runs] (compound 3.16 µM) and 1.88% [middle of 4 runs] (compound 10 µM). For the same compound, where the note is “curve of compound”, the IC50 was 1.57 µM [middle of 4 runs].

For the compound `O=C(c1ccc(F)c(F)c1Nc1ccc(I)cc1F)N1CC(O)([C@@H]2CCCCN2)C1`, the viability, T/C was 69.5% [middle of 4 runs] (compound 0.0316 µM), 62.4% [middle of 4 runs] (compound 0.1 µM) and 33.5% [middle of 4 runs] (compound 1 µM).
